A short description of experiment [1]: NIH-3T3 fibroblast cytotoxicity, dose response, cytotoxicity control, cell-based, fluorescence, Alamar Blue, secondary assay (AID 2327).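 Note: NIH-3T3 mouse fibroblasts cultured with fluconazole at 8 µg/mL.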 Format: functional.
Experiment [2] has as its target T1, Serine/threonine-protein phosphatase (Candida dubliniensis (strain CD36 / CBS 7987 / NCPF 3949 / NRRLY-17841) (Yeast), UniProt B9W6M3).
T1 sequence (B9W6M3 whole entry): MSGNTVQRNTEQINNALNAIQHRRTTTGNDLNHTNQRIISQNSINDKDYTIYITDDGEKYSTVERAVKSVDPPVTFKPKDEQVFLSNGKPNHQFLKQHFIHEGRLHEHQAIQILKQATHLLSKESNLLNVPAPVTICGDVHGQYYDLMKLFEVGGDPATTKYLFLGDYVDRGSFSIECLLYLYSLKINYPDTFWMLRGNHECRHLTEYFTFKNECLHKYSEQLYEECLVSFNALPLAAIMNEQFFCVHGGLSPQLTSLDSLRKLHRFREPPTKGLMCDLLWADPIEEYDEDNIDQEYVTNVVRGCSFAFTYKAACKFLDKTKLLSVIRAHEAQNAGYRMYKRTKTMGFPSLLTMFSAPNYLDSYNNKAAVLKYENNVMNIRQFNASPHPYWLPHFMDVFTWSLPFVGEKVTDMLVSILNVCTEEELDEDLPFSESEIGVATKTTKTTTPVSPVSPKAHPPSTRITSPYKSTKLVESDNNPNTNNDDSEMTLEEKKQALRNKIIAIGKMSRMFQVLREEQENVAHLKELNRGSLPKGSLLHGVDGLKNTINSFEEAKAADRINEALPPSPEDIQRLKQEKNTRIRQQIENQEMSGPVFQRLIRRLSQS
Nature of the experiment: calcineurin pathway inhibitors in yeast reporter, dose response, S. cerevisiae, CDRE-lacZ, luminescence, secondary (AID 2388).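 Note: yeast reporter cells carrying a calcineurin-responsive lacZ construct stimulated with calcium chloride; luminescent beta-galactosidase reporter signal in whole cells rather than isolated phosphatase activity; potency for inhibition where a drop in reporter signal means calcineurin blockade.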 Format: functional, cell-based.

In experiment [3] the target is ATP-dependent molecular chaperone HSP82 (Candida albicans (strain WO-1) (Yeast), UniProt C4YTQ8). Nature of the experiment: loss of DOC-induced GRE-beta-galactosidase reporter signal, dose response, Hsp90 inhibitor project, S. cerevisiae, luminescence (AID 2400).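 Note: beta-galactosidase luminescence from glucocorticoid response element reporter as proxy for Hsp90 function; inhibitor potency where signal loss means Hsp90 inhibition.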 The format is functional, cell-based.
A short description of experiment [4]: C. albicans growth with fluconazole, confirmation, fluorescence, retest (AID 2467). Format: functional, cell-based.
The subject of experiment [5] is Vero. Nature of the experiment: cells. Format: functional. As to conditions: Chlorocebus sabaeus.
In experiment [6] the test system is Vero. Put plainly: cells. The format is functional, cell-based. Conditions: Chlorocebus sabaeus.
A short description of experiment [7]: growth suppression of PTEN-null colon cells, dose response, cell-based, HCT116 PTEN knockout (AID 1047).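 Note: HCT116 colon tumor cells with PTEN knocked out; cells exposed to compound for 60 hours before readout; potency for loss of cell viability measured by luminescence.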 The format is functional.
Experiment [8] in a line: inhibitors of intracellular T. cruzi replication, confirmation, NIH3T3 host cells, beta-gal luminescence (AID 2044).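 Note: intracellular parasites grown in NIH/3T3 mouse fibroblasts as host cells; luminescent beta-galactosidase reporter signal from transgenic T. cruzi replicating inside host cells; inhibitors lower the luminescence signal.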 Format: functional, cell-based.
A short description of experiment [9]: cytotoxicity toward NIH3T3 fibroblasts, dose response, counter-screen, cell-based, ATP luminescence, mouse fibroblasts (AID 2010).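 Note: cells exposed to compound for about 90 hours before reading.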 The format is functional.
A short description of experiment [10]: insulin promoter down-regulators in MIN6 cells, imaging, high-content screening, mouse beta cells (AID 1628). The format is functional.
The nature of experiment [11]: growth suppression of beta-catenin-knockout colon cells, dose response, cell-based, HCT116, human colon tumor (AID 1045).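 Note: HCT116 colon tumor cells with beta catenin knocked out; cells exposed to compound for 60 hours.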 The format is functional.
Experiment [12] in a line: cytotoxicity in MIN6 insulinoma cells, dose response, cytotoxicity control, cell-based, mouse insulinoma (AID 2122).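 Note: confirmatory high-throughput counterscreen run to flag cytotoxic compounds; mouse MIN-6 beta cells carrying an insulin promoter eGFP reporter.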 The format is functional.
Experiment [13] can be described thus: cytotoxicity in KRAS-transformed pancreatic duct cells, primary screen, cell-based, fluorescence, HTS (AID 431).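 Note: cell line used: HPDE-C7K.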 The format is functional. As to conditions: Homo sapiens.
The nature of experiment [14]: cytotoxicity in HPDE-C7 cells, cell-based, fluorescence, HTS (AID 430). Format: functional. Conditions: Homo sapiens.
Experiment [15] addresses T2, Protein RecA (Mycobacterium tuberculosis, UniProt P9WHJ3).
T2 sequence (P9WHJ3 whole entry): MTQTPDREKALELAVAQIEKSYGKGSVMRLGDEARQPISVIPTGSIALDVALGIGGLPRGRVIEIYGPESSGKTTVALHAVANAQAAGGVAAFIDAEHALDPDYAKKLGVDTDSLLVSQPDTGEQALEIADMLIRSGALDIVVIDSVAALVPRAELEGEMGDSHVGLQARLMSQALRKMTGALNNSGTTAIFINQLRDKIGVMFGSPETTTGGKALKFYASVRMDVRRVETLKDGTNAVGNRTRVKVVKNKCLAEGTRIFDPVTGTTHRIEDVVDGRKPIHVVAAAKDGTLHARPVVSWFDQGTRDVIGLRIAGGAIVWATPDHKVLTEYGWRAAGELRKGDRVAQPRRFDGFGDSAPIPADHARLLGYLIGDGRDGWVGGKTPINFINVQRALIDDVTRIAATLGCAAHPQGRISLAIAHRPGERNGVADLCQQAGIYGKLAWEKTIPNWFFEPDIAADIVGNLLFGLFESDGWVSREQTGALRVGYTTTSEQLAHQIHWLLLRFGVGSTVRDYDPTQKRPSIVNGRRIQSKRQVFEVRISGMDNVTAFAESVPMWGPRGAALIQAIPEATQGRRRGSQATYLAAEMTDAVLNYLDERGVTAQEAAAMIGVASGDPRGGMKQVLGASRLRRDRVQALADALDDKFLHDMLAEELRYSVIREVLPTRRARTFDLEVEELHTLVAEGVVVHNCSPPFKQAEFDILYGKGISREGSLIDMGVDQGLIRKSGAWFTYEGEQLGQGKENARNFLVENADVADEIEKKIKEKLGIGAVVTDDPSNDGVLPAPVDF
Put plainly: Fluorescence Cell-Free Homogeneous Dose Retest to Identify Inhibitors of RecA-Intein Splicing Activity. [Related pubchem assays (depositor defined):AID2097, AID2223, AID489010, AID492950]. Format: functional.

Experiment [16] has as its target T3, Replicative DNA helicase DnaB (Mycobacterium tuberculosis, UniProt P9WMR3).
T3 sequence (P9WMR3 whole entry): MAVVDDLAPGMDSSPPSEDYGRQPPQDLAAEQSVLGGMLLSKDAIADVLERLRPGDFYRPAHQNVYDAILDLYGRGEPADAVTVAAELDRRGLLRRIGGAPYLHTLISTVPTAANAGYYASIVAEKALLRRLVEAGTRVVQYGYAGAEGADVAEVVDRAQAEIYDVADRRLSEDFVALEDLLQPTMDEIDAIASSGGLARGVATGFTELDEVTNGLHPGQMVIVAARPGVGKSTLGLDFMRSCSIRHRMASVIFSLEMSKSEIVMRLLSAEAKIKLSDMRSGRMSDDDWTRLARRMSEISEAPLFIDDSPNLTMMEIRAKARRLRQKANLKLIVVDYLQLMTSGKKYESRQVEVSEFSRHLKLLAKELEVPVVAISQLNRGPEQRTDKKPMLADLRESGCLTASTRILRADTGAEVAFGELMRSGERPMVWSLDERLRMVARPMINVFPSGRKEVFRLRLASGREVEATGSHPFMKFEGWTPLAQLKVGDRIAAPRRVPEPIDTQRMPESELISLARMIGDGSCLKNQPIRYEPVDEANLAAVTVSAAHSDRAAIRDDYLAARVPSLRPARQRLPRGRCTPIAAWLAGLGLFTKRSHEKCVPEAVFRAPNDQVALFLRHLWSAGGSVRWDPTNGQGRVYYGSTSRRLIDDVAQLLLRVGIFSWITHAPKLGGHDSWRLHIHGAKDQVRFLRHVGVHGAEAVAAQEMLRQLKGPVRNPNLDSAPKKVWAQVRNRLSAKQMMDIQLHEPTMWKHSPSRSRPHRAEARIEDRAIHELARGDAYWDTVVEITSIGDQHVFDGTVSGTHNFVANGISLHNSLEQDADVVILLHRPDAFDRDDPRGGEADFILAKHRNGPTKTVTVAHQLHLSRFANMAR
Nature of the experiment: DnaB intein splicing inhibitors, dose response, biochemical, cell-free fluorescence (AID 449749). The format is functional.

Experiment [17] deals with BJ. Nature of the experiment: cytotoxicity toward Ras-transformed BJeLR fibroblasts, dose response, cell-based, alamar blue fluorescence, cherrypicked samples (AID 2631).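 Note: confirmatory dose-response assay in RAS-dependent BJ fibroblasts engineered with TERT, LT and ST, with cytotoxicity read by fluorescence.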 Format: functional. Conditions: Homo sapiens.
Experiment [18] has as its system BJ. Nature of the experiment: cells. The format is functional, cell-based. As to conditions: Homo sapiens.
The test system of experiment [19] is BJ. Nature of the experiment: cytotoxicity toward BJ-TERT fibroblasts, dose response, cell-based, RAS-independent, luminescence (AID 1933). Format: functional. Conditions: Homo sapiens.
The nature of experiment [20]: cytotoxicity toward DRD oncogenic fibroblasts, dose response, cell-based, non-viral oncogenic, luminescence (AID 1934). Format: functional. As to conditions: Homo sapiens.
The subject of experiment [21] is BJ. Nature of the experiment: cytotoxicity toward BJ-TERT-LT-ST fibroblasts, dose response, cell-based, RAS-independent, luminescence (AID 1935).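 Note: BJ fibroblasts immortalized with TERT plus LT and ST oncogenes.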 Format: functional. As to conditions: Homo sapiens.

Calls of active or inactive are those of the source. Cut-off read from the data, not from the text of the source, for most assays here: actives have a measured EC50 and inactives only a lower limit.

Sequence of ATP-dependent molecular chaperone HSP82 (C4YTQ8 whole entry): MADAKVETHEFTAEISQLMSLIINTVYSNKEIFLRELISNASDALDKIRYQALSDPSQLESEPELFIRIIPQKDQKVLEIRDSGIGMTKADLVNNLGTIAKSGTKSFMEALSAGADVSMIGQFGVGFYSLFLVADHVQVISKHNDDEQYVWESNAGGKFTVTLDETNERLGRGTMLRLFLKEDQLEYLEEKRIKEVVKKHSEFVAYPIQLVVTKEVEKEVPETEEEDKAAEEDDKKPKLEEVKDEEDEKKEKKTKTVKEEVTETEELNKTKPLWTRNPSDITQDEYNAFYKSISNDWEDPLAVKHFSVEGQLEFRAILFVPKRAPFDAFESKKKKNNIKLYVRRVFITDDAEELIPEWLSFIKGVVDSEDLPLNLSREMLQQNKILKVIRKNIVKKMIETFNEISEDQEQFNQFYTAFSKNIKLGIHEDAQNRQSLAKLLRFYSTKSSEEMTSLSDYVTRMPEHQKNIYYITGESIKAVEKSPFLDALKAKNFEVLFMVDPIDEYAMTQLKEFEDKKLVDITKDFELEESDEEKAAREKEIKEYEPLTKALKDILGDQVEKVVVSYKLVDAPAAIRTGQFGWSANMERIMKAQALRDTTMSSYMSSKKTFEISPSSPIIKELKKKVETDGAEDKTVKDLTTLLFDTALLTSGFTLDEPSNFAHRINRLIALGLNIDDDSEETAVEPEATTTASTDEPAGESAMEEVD

Take `COc1ccc(C2c3ccc4ccccc4c3Oc3ncn(CCN4CCOCC4)c(=N)c32)cc1` (stereo unspecified): the EC50 in [1] is > 160 µM (inactive); in experiment [2] it was > 180 µM (inactive); in experiment [3], > 160 µM (inactive); in experiment [4], 1.9 µM (active).

On to `CCOc1ccc(/C=C/c2nc(C#N)c(NCCCN(C)C)o2)cc1`, for which the CC50 in experiment [5] was > 25 µM (active). Moreover, the half-inhibitory concentration (IC50) in [6] was 21.1 µM (active).

On to `N=c1c2c(-c3ccccc3)c(-c3ccccc3)n(Cc3ccco3)c2ncn1Cc1ccco1`, for which the half-maximal effective concentration (EC50) in [7] is 1.16 µM (active); in experiment [8], 0.68 µM (active); in experiment [9] it was 13.5 µM (active); in experiment [11], 0.891 µM (active); in experiment [13] it was 11.9 µM (active); in experiment [14] it was 7.73 µM (active). Also, the EC50 in [15] was 8.76 µM (active). Besides, the IC50 in [10] is 1.72 µM (active); in [12], 2.49 µM (active). The concentration at half-maximal activity (AC50) in experiment [16] was 6.15 µM (active).

Consider `CC1=CC(=O)C=C(C)C1=NOc1ccccc1[N+](=O)[O-]`, for which the EC50 was > 66.7 µM (inactive) in [17]; 11.1 µM (inconclusive) in experiment [18]; 17.2 µM (inconclusive) in experiment [19]; > 150 µM (not active) in experiment [20]; > 75 µM (not active) in [21].

Values taken from ChEMBL document CHEMBL1201862, “PubChem BioAssay data set” (2004).
